Results taken from patent US5019390A, “Anticancer agent--IMIC” (Research Corporation Technologies, Inc., priority 1987, dated 1991).

Tests used:
P388 leukemia cells [1] = experiment: IP injection study in vivo, P388 leukemia in DBA/2 mice; details: in vivo experiment 4, daily IP injections
Method: Mice were 26-27 days old. […] Purina mouse chow was supplied ad libitum.
In experiments 3 & 4 (Tables 12a & 13a) the DBA/2 mouse was used.
DNA was determined on total cells with no differentiation between viable and non-viable cells.

P388 leukemia cells [2] = experiment: Viable P388 leukemia cells in cell culture (trypan blue); details: 48 hours, 37° C.
[3] = in vitro experiment 1, 8 ml treatment
[4] = in vitro experiment 2, 2 ml treatment

## O=C(O)c1cc(=O)[nH]c(=O)[nH]1 [Orotic Acid, orotic acid]
P388 leukemia cells [1]
  % Inhibition (numbers of viable P388 cells): 38%
  DNA Content: 428 µg/mL
  Numbers of Viable P388 Cells/ml: 4.20 × 10^7 ± 630000 cells/ml
P388 leukemia cells [2]; [3]
  % Inhibition Based on Ringers Locke Control: 11%
  Numbers of Viable P388 Cells/ml: .66 × 10^6 ± 3500 Cells/ml
P388 leukemia cells [2]; [4]
  % Inhibition Based on Extraction Blank: Stimulation
  % Inhibition Based on PBS Control: Stimulation
  Numbers of Viable P388 Cells/ml: 1.90 × 10^6 ± 7100 Cells/ml
